# Results reported in patent US9353084B2, “2-amino 3,5,5-trifluoro-3,4,5,6-tetrahydropyridines as BACE1 inhibitors for treatment of Alzheimer's disease” (H. Lundbeck A/S, priority 2014, dated 2016).
# Biological target: human BACE1 (Homo sapiens (Human), UniProt P56817)
# Assay: BACE1 binding assay (SPA-based, radioligand displacement)
# Conditions: pH 4.5, Ki calculated from IC50
# Procedure: The binding assay was performed as SPA-based assay using a biotinylated form of human BACE1 recombinantly expressed and subsequently purified from Freestyle HEK293 cells. The binding assay was run in a 50 mM sodium acetate buffer, pH 4.5 containing 50 mM NaCl and 0.03% Tween-20 in white clear bottom 384 plates (Corning #3653). 10 nM (final concentration) radioligand ([^3H]—N-((1S,2R)-1-benzyl-3-cyclopropylamino-2-hydroxy-propyl)-5-(methanesulfonyl-methyl-amino)-N—((R)-1-phenyl-ethyl)-isophthalamide) (TRQ11569 purchased from GE Healthcare) was mixed with test compound at a given concentration, 6 nM (final concentration) human BACE1 and 25 μg Streptavidin coated PVT core SPA beads (RPNQ0007, GE Healthcare Life Sciences) in a total volume of 40 μl. Several concentrations of each test compound were tested in the assay for IC50 determination. The plates were incubated for one hour at room temperature and counted in a Wallac Trilux counter. Total and non-specific binding were determined using buffer and 1 μM (final concentration) of the high affinity BACE1 reference inhibitor (S)-6-[3-chloro-5-(5-prop-1-ynyl-pyridin-3-yl)-thiophen-2-yl]-2-imino-3,6-dimethyl-tetrahydro-pyrimidin-4-one, respectively. For each test compound, a IC50 value (the concentration mediating 50% inhibition of the specific binding of the radioligand) was determined from concentration-response curve and used to calculate the Ki from the equation Ki=IC50/(1+L/Kd), where L and Kd are the final concentration of the radioligand used in the assay and the dissociation constant of the radioligand, respectively. The Kd of the radioligand was determined from saturation binding experiments.
# Chain of human BACE1 (P56817 46-501): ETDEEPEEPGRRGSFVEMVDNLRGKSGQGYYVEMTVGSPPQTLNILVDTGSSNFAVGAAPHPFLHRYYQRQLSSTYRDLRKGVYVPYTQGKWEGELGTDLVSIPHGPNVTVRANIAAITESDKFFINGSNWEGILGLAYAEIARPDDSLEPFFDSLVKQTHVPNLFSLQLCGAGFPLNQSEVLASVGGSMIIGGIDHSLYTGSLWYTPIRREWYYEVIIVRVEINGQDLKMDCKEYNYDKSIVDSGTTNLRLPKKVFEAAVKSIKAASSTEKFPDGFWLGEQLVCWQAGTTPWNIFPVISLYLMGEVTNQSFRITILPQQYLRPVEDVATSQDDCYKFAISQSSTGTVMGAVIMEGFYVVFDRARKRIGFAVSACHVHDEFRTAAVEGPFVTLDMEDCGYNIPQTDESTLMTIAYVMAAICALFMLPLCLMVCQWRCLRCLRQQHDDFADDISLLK
row,Structure (SMILES),Ki [nM]
1,"C[C@@]1(F)CC(F)(F)[C@@](C)(c2cc(NC(=O)c3ccc(F)cn3)ccc2F)N=C1N [Compound 2, N-(3-((2R,5R)-6-amino-3,3,5-trifluoro-2,5-dimethyl-2,3,4,5-tetrahydropyridin-2-yl)-4-fluorophenyl)-5-fluoropicolinamide]",210
2,"C[C@]1(F)CC(F)(F)[C@@](C)(c2cc(NC(=O)c3ccc(Cl)cn3)ccc2F)N=C1N [Compound 3, N-(3-((2R,5S)-6-amino-3,3,5-trifluoro-2,5-dimethyl-2,3,4,5-tetrahydropyridin-2-yl)-4-fluorophenyl)-5-chloropicolinamide]",12
3,"C[C@]1(F)CC(F)(F)[C@@](C)(c2cc(NC(=O)c3ccc(C#N)cn3)ccc2F)N=C1N [Compound 4, N-(3-((2R,5S)-6-amino-3,3,5-trifluoro-2,5-dimethyl-2,3,4,5-tetrahydropyridin-2-yl)-4-fluorophenyl)-5-cyanopicolinamide]",11
4,"C[C@]1(F)CC(F)(F)[C@@](C)(c2cc(NC(=O)c3ccn(C(F)F)n3)ccc2F)N=C1N [Compound 6, N-(3-((2R,5S)-6-amino-3,3,5-trifluoro-2,5-dimethyl-2,3,4,5-tetrahydropyridin-2-yl)-4-fluorophenyl)-1-(difluoromethyl)-1H-pyrazole-3-carboxamide]",19
5,"Cc1nc(C(=O)Nc2ccc(F)c([C@@]3(C)N=C(N)[C@@](C)(F)CC3(F)F)c2)co1 [Compound 7, N-(3-((2R,5S)-6-amino-3,3,5-trifluoro-2,5-dimethyl-2,3,4,5-tetrahydropyridin-2-yl)-4-fluorophenyl)-2-methyloxazole-4-carboxamide]",33
6,"Cn1cc(Br)nc1C(=O)Nc1ccc(F)c([C@@]2(C)N=C(N)[C@@](C)(F)CC2(F)F)c1 [Compound 9, N-(3-((2R,5S)-6-amino-3,3,5-trifluoro-2,5-dimethyl-2,3,4,5-tetrahydropyridin-2-yl)-4-fluorophenyl)-4-bromo-1-methyl-1H-imidazole-2-carboxamide]",100
7,"Cc1csc(C(=O)Nc2ccc(F)c([C@@]3(C)N=C(N)[C@@](C)(F)CC3(F)F)c2)n1 [Compound 10, N-(3-((2R,5S)-6-amino-3,3,5-trifluoro-2,5-dimethyl-2,3,4,5-tetrahydropyridin-2-yl)-4-fluorophenyl)-4-methylthiazole-2-carboxamide]",44
8,"C[C@]1(F)CC(F)(F)[C@@](C)(c2cc(NC(=O)c3ccc(C(F)(F)F)cn3)ccc2F)N=C1N [Compound 11, N-(3-((2R,5S)-6-amino-3,3,5-trifluoro-2,5-dimethyl-2,3,4,5-tetrahydropyridin-2-yl)-4-fluorophenyl)-5-(trifluoromethyl)picolinamide]",63
9,"C[C@]1(F)CC(F)(F)[C@@](C)(c2cc(NC(=O)c3nc(CF)cs3)ccc2F)N=C1N [Compound 15, N-(3-((2R,5S)-6-amino-3,3,5-trifluoro-2,5-dimethyl-2,3,4,5-tetrahydropyridin-2-yl)-4-fluorophenyl)-4-(fluoromethyl)thiazole-2-carboxamide]",46
10,"C[C@]1(F)CC(F)(F)[C@@](C)(c2cc(NC(=O)c3cnc(C(F)F)cn3)ccc2F)N=C1N [Compound 16, N-(3-((2R,5S)-6-amino-3,3,5-trifluoro-2,5-dimethyl-2,3,4,5-tetrahydropyridin-2-yl)-4-fluorophenyl)-5-(difluoromethyl)pyrazine-2-carboxamide]",58
11,"Cc1noc(C(=O)Nc2ccc(F)c([C@@]3(C)N=C(N)[C@@](C)(F)CC3(F)F)c2)n1 [Compound 21, N-(3-((2R,5S)-6-amino-3,3,5-trifluoro-2,5-dimethyl-2,3,4,5-tetrahydropyridin-2-yl)-4-fluorophenyl)-3-methyl-1,2,4-oxadiazole-5-carboxamide]",58
12,"Cn1cnc(C(=O)Nc2ccc(F)c([C@@]3(C)N=C(N)[C@@](C)(F)CC3(F)F)c2)n1 [Compound 22, N-(3-((2R,5S)-6-amino-3,3,5-trifluoro-2,5-dimethyl-2,3,4,5-tetrahydropyridin-2-yl)-4-fluorophenyl)-1-methyl-1H-1,2,4-triazole-3-carboxamide]",110
13,"C[C@@]1(F)CC(F)(F)[C@@](C)(c2cc(NC(=O)c3ccn(C(F)F)n3)ccc2F)N=C1N [Compound 23, N-(3-((2R,5R)-6-amino-3,3,5-trifluoro-2,5-dimethyl-2,3,4,5-tetrahydropyridin-2-yl)-4-fluorophenyl)-1-(difluoromethyl)-1H-pyrazole-3-carboxamide]",71
14,"COc1cnc(C(=O)Nc2ccc(F)c([C@@]3(C)N=C(N)[C@](C)(F)CC3(F)F)c2)cn1 [Compound 25, N-(3-((2R,5R)-6-amino-3,3,5-trifluoro-2,5-dimethyl-2,3,4,5-tetrahydropyridin-2-yl)-4-fluorophenyl)-5-methoxypyrazine-2-carboxamide]",130
15,"C[C@@]1(F)CC(F)(F)[C@@](C)(c2cc(NC(=O)c3ccc(C(F)(F)F)cn3)ccc2F)N=C1N [Compound 28, N-(3-((2R,5R)-6-amino-3,3,5-trifluoro-2,5-dimethyl-2,3,4,5-tetrahydropyridin-2-yl)-4-fluorophenyl)-5-(trifluoromethyl)picolinamide]",170
16,"C[C@@]1(F)CC(F)(F)[C@@](C)(c2cc(NC(=O)c3nc(CF)cs3)ccc2F)N=C1N [Compound 31, N-(3-((2R,5R)-6-amino-3,3,5-trifluoro-2,5-dimethyl-2,3,4,5-tetrahydropyridin-2-yl)-4-fluorophenyl)-4-(fluoromethyl)thiazole-2-carboxamide]",92
17,"C[C@@]1(F)CC(F)(F)[C@@](C)(c2cc(NC(=O)c3ccc(C#N)cn3)ccc2F)N=C1N [Compound 32, N-(3-((2R,5R)-6-amino-3,3,5-trifluoro-2,5-dimethyl-2,3,4,5-tetrahydropyridin-2-yl)-4-fluorophenyl)-5-cyanopicolinamide]",51
18,"C[C@@]1(F)CC(F)(F)[C@@](C)(c2cc(NC(=O)c3ccc(Cl)cn3)ccc2F)N=C1N [Compound 33, N-(3-((2R,5R)-6-amino-3,3,5-trifluoro-2,5-dimethyl-2,3,4,5-tetrahydropyridin-2-yl)-4-fluorophenyl)-5-chloropicolinamide]",62

# The remaining lines, values ahead:
row,Ki [nM],Structure (SMILES)
1,66,"C[C@]1(F)CC(F)(F)[C@@](C)(c2cc(NC(=O)c3nccs3)ccc2F)N=C1N [Compound 8, N-(3-((2R,5S)-6-amino-3,3,5-trifluoro-2,5-dimethyl-2,3,4,5-tetrahydropyridin-2-yl)-4-fluorophenyl) thiazole-2-carboxamide]"
2,29,"COc1cnc(C(=O)Nc2ccc(F)c([C@@]3(C)N=C(N)[C@@](C)(F)CC3(F)F)c2)nc1 [Compound 12, N-(3-((2R,5S)-6-amino-3,3,5-trifluoro-2,5-dimethyl-2,3,4,5-tetrahydropyridin-2-yl)-4-fluorophenyl)-5-methoxypyrimidine-2-carboxamide]"
3,37,"C[C@]1(F)CC(F)(F)[C@@](C)(c2cc(NC(=O)c3nc(CF)co3)ccc2F)N=C1N [Compound 14, N-(3-((2R,5S)-6-amino-3,3,5-trifluoro-2,5-dimethyl-2,3,4,5-tetrahydropyridin-2-yl)-4-fluorophenyl)-4-(fluoromethyl)oxazole-2-carboxamide]"
4,32,"COc1cnc(C(=O)Nc2ccc(F)c([C@@]3(C)N=C(N)[C@@](C)(F)CC3(F)F)c2)c(C)n1 [Compound 19, N-(3-((2R,5S)-6-amino-3,3,5-trifluoro-2,5-dimethyl-2,3,4,5-tetrahydropyridin-2-yl)-4-fluorophenyl)-5-methoxy-3-methylpyrazine-2-carboxamide]"
5,1600,"Cc1nnc(C(=O)Nc2ccc(F)c([C@@]3(C)N=C(N)[C@@](C)(F)CC3(F)F)c2)o1 [Compound 20, N-(3-((2R,5S)-6-amino-3,3,5-trifluoro-2,5-dimethyl-2,3,4,5-tetrahydropyridin-2-yl)-4-fluorophenyl)-5-methyl-1,3,4-oxadiazole-2-carboxamide]"
6,130,"COc1cnc(C(=O)Nc2ccc(F)c([C@@]3(C)N=C(N)[C@](C)(F)CC3(F)F)c2)nc1 [Compound 26, N-(3-((2R,5R)-6-amino-3,3,5-trifluoro-2,5-dimethyl-2,3,4,5-tetrahydropyridin-2-yl)-4-fluorophenyl)-5-methoxypyrimidine-2-carboxamide]"
7,140,"Cc1csc(C(=O)Nc2ccc(F)c([C@@]3(C)N=C(N)[C@](C)(F)CC3(F)F)c2)n1 [Compound 27, N-(3-((2R,5R)-6-amino-3,3,5-trifluoro-2,5-dimethyl-2,3,4,5-tetrahydropyridin-2-yl)-4-fluorophenyl)-4-methylthiazole-2-carboxamide]"
8,260,"C[C@@]1(F)CC(F)(F)[C@@](C)(c2cc(NC(=O)c3nc(CF)co3)ccc2F)N=C1N [Compound 30, N-(3-((2R,5R)-6-amino-3,3,5-trifluoro-2,5-dimethyl-2,3,4,5-tetrahydropyridin-2-yl)-4-fluorophenyl)-4-(fluoromethyl)oxazole-2-carboxamide]"
9,210,"Cc1nc(C(=O)Nc2ccc(F)c([C@@]3(C)N=C(N)[C@](C)(F)CC3(F)F)c2)co1 [Compound 34, N-(3-((2R,5R)-6-amino-3,3,5-trifluoro-2,5-dimethyl-2,3,4,5-tetrahydropyridin-2-yl)-4-fluorophenyl)-2-methyloxazole-4-carboxamide]"
